Values after ≈ are worked out from the molar mass of the structure shown. Where two headings read alike, the source gives them in different places.
Experiments:
[1] = Stability (half-lives) in phosphate buffer, decomposition observed via HPLC; type: physicochemical; conditions: 50 mM phosphate buffer, room temperature; for stabilities (half-lives) pH 2.0: pH 2.0, approximately 10 mM; for stabilities (half-lives) pH 7.0: pH 7.0, approximately 10 mM; for stabilities (half-lives) pH 12.0: pH 12.0, approximately 10 mM
Procedure: Compounds 352 - 354 were dissolved in 50 mM phosphate buffered water (pH 2.0, 7.0 or 12.0) at approximately 10 mM concentrations. […] These compounds were used since they contain a chromophore that facilitated monitoring of decomposition by absorption methods common in the HPLC apparatus used.

[2] = Minimum hemolytic concentration (MHC); type: cell-based; conditions: Table 16
Procedure: Minimum inhibition concentrations (MIC) and minimum hemolytic concentrations (MHC) were measured as described in Li et al., Antimicrob. Agents. Chemother., 1999, 43, 1347. […]

[3] = tested on: Staphylococcus aureus ATCC 25923; assay: MIC and MBC measurement; type: cell-based; conditions: Table 16 (MIC^a), S. aureus (ATTC 25923)
Text: (§1) General: Microorganisms. Reference strains were purchased from the American Type Culture Collection (Rockville, MD) or Bactrol disks from Difeo Laboratories (Detroit, MI). The following specific ATCC strains were used: 10798 Escherichia coli, 25922 Escherichia coli, 13883 Klebsiella pneumoniae, 27853 Pseudomonas aeruginosa, 14028 Salmonella typhimurium, 29212 Enterococcus faecalis, 25923 Staphylococcus aureus, 19615 Streptococcus pyogenes, and 90028 Candida albicans. Bacterial strains were maintained on Mueller-Hinton agar plates, and Candida albicans was maintained on Sabouraud Dextrose agar plates.
(§2) Tryptic soy broth (TSB) was made by dissolving 27.5 grams of tryptic soy broth without dextrose (DIFCO Laboratories) in 1 liter of deionized water and sterilizing at 121 °C for 15 minutes. Solid agar (TSA) plates were made by dissolving 6.4 grams of tryptic soy broth and 12 grams of agar (purified grade, Fischer Scientific) in 800 mL of deionized water and sterilizing at 121 °C for 20 minutes. Aliquots (20 mL) of the homogeneous solution were then poured in sterile plastic petri dishes (100 x 15 mm, Fisher Scientific). Solutions of compounds were made by dissolving the HCl salt of the respective compound into an appropriate amount of deionized and sterilized water followed by microfiltration.
(§3) Aliquots of 1 mL of the suspension were added to test tubes containing 1 mL TSB and incrementally varied concentrations of cholic acid derivatives and/or erythromycin or novobiocin. In the sensitization experiments, erythromycin or novobiocin were added 15 minutes later than the cholic acid derivatives. The samples were subjected to stationary incubation at 37°C for 24 hours. Sample turbidity was determined by measuring absorption at 760 nm (HP 8453 UV-Visible Chemstation, Hewlett Packard). Additionally, an alliquot from each of the samples showing no measurable turbidity was subcultured on TSA plates (alliquots were diluted to provide fewer than 300 CFU). Colonies that grew on the subculture after overnight incubation were counted and the number of CFU/mL in the samples were calculated. The calculated values were compared to the number of CFU/mL in the original inoculum. […]

[4] = tested on: Escherichia coli ATCC 25922; assay: MIC and MBC measurement; type: cell-based
Text: as §1, §2, §3

[5] = tested on: Escherichia coli ATCC 25922; assay: Sensitization to erythromycin, novobiocin or rifampicin (permeabilization, FIC); conditions: for c: concentration of the compounds required to lower the MIC of erythromycin from 30 to 1 µg/mL: Table 16, with E. coli
Procedure: FICs can be performed by checkerboard titrations of compounds in one dimension of a microtiter plate, and of antibiotics in the other dimension, for example. The FIC is calculated by looking at the impact of one antibiotic on the MIC of the other and vice versa. […] As used herein, FIC can be determined as follows: FIC = (MIC(compound in combination))/(MIC(compound alone)) + (MIC(antibiotic in combination))/(MIC(antibiotic alone)) [formula]

[6] = tested on: Pseudomonas aeruginosa ATCC 27853; assay: MIC and MBC measurement; type: cell-based; conditions: ATCC27853, Table 6, P. aureginosa (ATCC 27853)
Procedure: (§4) General: Microorganisms. Reference strains were purchased from the American Type Culture Collection (Rockville, MD) or Bactrol disks from Difeo Laboratories (Detroit, MI). […] Bacterial strains were maintained on Mueller-Hinton agar plates, and Candida albicans was maintained on Sabouraud Dextrose agar plates.
(§5) Aliquots (20 mL) of the homogeneous solution were then poured in sterile plastic petri dishes (100 x 15 mm, Fisher Scientific). Solutions of compounds were made by dissolving the HCl salt of the respective compound into an appropriate amount of deionized and sterilized water followed by microfiltration.
(§6) Aliquots of 1 mL of the suspension were added to test tubes containing 1 mL TSB and incrementally varied concentrations of cholic acid derivatives and/or erythromycin or novobiocin. […] Additionally, an alliquot from each of the samples showing no measurable turbidity was subcultured on TSA plates (alliquots were diluted to provide fewer than 300 CFU). Colonies that grew on the subculture after overnight incubation were counted and the number of CFU/mL in the samples were calculated. The calculated values were compared to the number of CFU/mL in the original inoculum.

[7] = tested on: Pseudomonas aeruginosa ATCC 27853; assay: Sensitization to erythromycin, novobiocin or rifampicin (permeabilization, FIC); type: cell-based; conditions: P. aureginosa (ATCC 27853)
Procedure: (§7) FICs can be performed by checkerboard titrations of compounds in one dimension of a microtiter plate, and of antibiotics in the other dimension, for example. The FIC is calculated by looking at the impact of one antibiotic on the MIC of the other and vice versa. […] Preferably, an FIC of less than 0.5 is obtained for synergism. As used herein, FIC can be determined as follows: FIC = (MIC(compound in combination))/(MIC(compound alone)) + (MIC(antibiotic in combination))/(MIC(antibiotic alone)) [formula]
(§8) Aliquots of 1 mL of the suspension were added to test tubes containing 1 mL TSB and incrementally varied concentrations of cholic acid derivatives and/or erythromycin or novobiocin. In the sensitization experiments, erythromycin or novobiocin were added 15 minutes later than the cholic acid derivatives. The samples were subjected to stationary incubation at 37°C for 24 hours. Sample turbidity was determined by measuring absorption at 760 nm (HP 8453 UV-Visible Chemstation, Hewlett Packard). Additionally, an alliquot from each of the samples showing no measurable turbidity was subcultured on TSA plates (alliquots were diluted to provide fewer than 300 CFU). Colonies that grew on the subculture after overnight incubation were counted and the number of CFU/mL in the samples were calculated. The calculated values were compared to the number of CFU/mL in the original inoculum.
Concentrations of 0.5, 1.0 or 3.0 µg/mL of these antibiotics were used, and the concentrations of the cholic acid derivatives required to inhibit bacterial growth of Gram-negative strains were determined.

[8] = tested on: E. coli (ATCC 10798); assay: MIC and MBC measurement; type: cell-based, Escherichia coli; conditions: Escherichia coli, ATCC10798, Table 1, E. coli (ATCC 10798)
Procedure: as §4, §5, §6

[9] = tested on: E. coli (ATCC 10798); assay: Sensitization to erythromycin or novobiocin (outer membrane permeabilization, FIC); type: cell-based, Escherichia coli; conditions: E. coli (ATCC 10798); for MBC: Escherichia coli
Procedure: as §7, §8
They were also tested for the ability to permeabilize the outer membrane of Gram-negative bacteria, causing sensitization to hydrophobic antibiotics that cannot cross the outer membrane. The permeabilization of the outer membrane was measured using erythromycin and novobiocin.

[10] = Staphylococcus aureus, ATCC25923, read-out: MIC
[11] = Escherichia coli, ATCC25922, Table 16 (MIC^b), E. coli (ATTC 25922), read-out: MIC

| Structure (SMILES) | stabilities (half-lives) pH 2.0 [1] [days] | stabilities (half-lives) pH 7.0 [1] [days] | stabilities (half-lives) pH 12.0 [1] [minutes] | MHC [2] [µg/mL] | MIC [3, 10] [µg/mL] | MIC [4, 11] [µg/mL] | c: concentration of the compounds required to lower the MIC of erythromycin from 30 to 1 µg/mL [5] [µg/mL] | other results |
| --- | --- | --- | --- | --- | --- | --- | --- | --- |
| C[C@H](CCCN(C)Cc1ccccc1)[C@H]1CC[C@H]2[C@@H]3[C@H](OC(=O)CCN)C[C@@H]4C[C@H](OC(=O)CCN)CC[C@]4(C)[C@H]3C[C@H](OC(=O)CCN)[C@]12C [Compound 353] | >37 | 37 | <30 |  |  |  |  |  |
| C[C@H](CCC(=O)OCC[N+](C)(C)C)[C@H]1CC[C@H]2[C@@H]3[C@H](OC(=O)CCN)C[C@@H]4C[C@H](OC(=O)CCN)CC[C@]4(C)[C@H]3C[C@H](OC(=O)CCN)[C@]12C [Compound 325] |  |  |  | >200 | 11 | 30 | 2.0 |  |
| C[C@H](CCCN(C)Cc1ccccc1)[C@H]1CC[C@H]2[C@@H]3[C@H](OCCNC(=N)N)C[C@@H]4C[C@H](OCCNC(=N)N)CC[C@]4(C)[C@H]3C[C@H](OCCNC(=N)N)[C@]12C [Compound 4] |  |  |  |  |  |  |  | MBC [6]: 40 µg/mL (≈ 53.1 µM); MIC [6]: 15 µg/mL (≈ 19.9 µM); MBC ([4]; Escherichia coli, ATCC25922, Table 4, E. coli (ATCC 25922)): 9 µg/mL (≈ 12 µM); MIC ([4]; Escherichia coli, ATCC25922, Table 4, E. coli (ATCC 25922), read-out: MIC): 6 µg/mL (≈ 7.97 µM); MBC ([7]; Pseudomonas aeruginosa, ATCC27853, Table 7, with erythromycin): 40 µg/mL; concentration required to lower the MIC of erythromycin from 240 µg/mL to 5 µg/mL ([7]; Table 7, with erythromycin): 5 µg/mL; concentration required to lower the MIC of novobiocin from >500 µg/mL to 1 µg/mL ([7]; Table 8, with novobiocin): 6 µg/mL; MBC ([5]; Escherichia coli, ATCC25922): 5 µg/mL; concentration required to lower the MIC of erythromycin from 60 µg/mL to 1 µg/mL ([5]; Table 5, E. coli (ATCC 25922), with erythromycin): 1 µg/mL; MBC ([8]; read-out: MBC): 10 µg/mL (≈ 13.3 µM); MIC ([8]; read-out: MIC): 5 µg/mL (≈ 6.64 µM); MBC ([9]; ATCC10798, Table 2, with erythromycin): 10 µg/mL; MBC ([9]; ATCC10798, Table 3, with novobiocin): 10 µg/mL; concentration required to lower the MIC of erythromycin from 70 µg/mL to 1 µg/mL ([9]; Table 2, with erythromycin): 1.5 µg/mL |
| CCCCCCCCOC(=O)CC[C@@H](C)[C@H]1CC[C@H]2[C@@H]3[C@H](OC(=O)CCCN)C[C@@H]4C[C@H](OC(=O)CCCN)CC[C@]4(C)[C@H]3C[C@H](OC(=O)CCCN)[C@]12C [Compound 343] |  |  |  | <10 | 1.2 (≈ 1.55 µM) | 3.5 (≈ 4.51 µM) | 3.5 |  |
| C[C@H](CCC(=O)OCC[N+](C)(C)C)[C@H]1CC[C@H]2[C@@H]3[C@H](OC(=O)CN)C[C@@H]4C[C@H](OC(=O)CN)CC[C@]4(C)[C@H]3C[C@H](OC(=O)CN)[C@]12C [Compound 324] |  |  |  | >200 | 15 | 60 | 10 |  |
| C[C@H](CCC(=O)OCC[N+](C)(C)C)[C@H]1CC[C@H]2[C@@H]3[C@H](OC(=O)CCCN)C[C@@H]4C[C@H](OC(=O)CCCN)CC[C@]4(C)[C@H]3C[C@H](OC(=O)CCCN)[C@]12C [Compound 326] |  |  |  | >200 | 14 | 23 | 2.0 |  |
| CCCCCCCCOC(=O)CC[C@@H](C)[C@H]1CC[C@H]2[C@@H]3[C@H](OC(=O)CN)C[C@@H]4C[C@H](OC(=O)CN)CC[C@]4(C)[C@H]3C[C@H](OC(=O)CN)[C@]12C [Compound 341] |  |  |  | 4.0 | 1.8 (≈ 2.6 µM) | 1 (≈ 1.45 µM) | 0.7 |  |
| C[C@H](CCCN(C)Cc1ccccc1)[C@H]1CC[C@H]2[C@@H]3[C@H](OC(=O)CCCN)C[C@@H]4C[C@H](OC(=O)CCCN)CC[C@]4(C)[C@H]3C[C@H](OC(=O)CCCN)[C@]12C [Compound 354] | 33 | 12 | <30 |  |  |  |  |  |
| C[C@H](CCC(=O)O)[C@H]1CC[C@H]2[C@@H]3[C@H](OC(=O)CN)C[C@@H]4C[C@H](OC(=O)CN)CC[C@]4(C)[C@H]3C[C@H](OC(=O)CN)[C@]12C [Compound 327] |  |  |  | >100 |  |  | >100 | MIC [3]: >100 µg/mL; MIC ([4]; Table 16, second MIC column (MIC^b), E. coli (ATTC 25922)): >100 µg/mL |
| C[C@H](CCCN(C)Cc1ccccc1)[C@H]1CC[C@H]2[C@@H]3[C@H](OC(=O)CN)C[C@@H]4C[C@H](OC(=O)CN)CC[C@]4(C)[C@H]3C[C@H](OC(=O)CN)[C@]12C [Compound 352] | >37 | 28 | <30 |  |  |  |  |  |
